Assay results published in article PMC8304783, “Antiadhesive Properties of Imidazolium Ionic Liquids Based on (−)-Menthol Against Candida spp” (International Journal of Molecular Sciences, 2021).
Like-named read-outs stand apart in the source and are kept apart here.

Experiments:
C. albicans B4 = assay: MIC90 and MFC towards clinical isolates; assay type: cell-based; details: Candida albicans
Protocol: (§1) Experiments were performed according to the Clinical and Laboratory Standards Institute (2008), 3rd ed. M27-A3 [51], with modifications described previously. Briefly, MICs were determined by serially diluting ILs in YPD medium in sterile 96-well plates (Sarstedt) and inoculating with fungal suspensions (final OD600 per well = 0.01). After incubation (48 h; 28 °C), the OD600 was measured (ASYS UVM 340 Biogenet). […] Each well was then replated on YPD agar and incubated for 5 days at 28 °C.
(§2) The effect of imidazolium ILs based on of (1R,2S,5R)‐(−)‐menthol was evaluated on clinical, fluconazole(FLC)‐resistant and FLC‐sensitive C. albicans isolates. C. albicans Gu4 and Gu5 strains were isolated from a patient before and after fluconazole administration, respectively.
(§3) Azole‐resistance of Gu5 origins in overexpression of CDR1 and CD R2. C. albicans B3 and B4 strains […]
(§4) Azole‐resistance of B4 results from overexpression of MDR1. The strains were generous gifts from Prof. S. Milewski (Gdańsk, Poland) and Prof. J. Morschhäuser (Wurzburg, Germany). They are originally referenced in: Franz, R., Ruhnke, M. & Morschhäuser, J. Molecular aspects of fluconazole resistance development in Candida albicans. Mycoses 42, 453–458, (1999).
(§5) Table S1 summarizes the minimal inhibitory and fungicidal concentration (MIC90 and MFC, respectively) values of ILs tested against the C. albicans isolates (for ILs structures see section 5.2. in the mai n text). No difference in case of MIC90 values between the strains was observed. However, MFC values were two‐fold lower for the compounds 1b and 2a in case of B3 and B4 isolates. The MFC value of the compound 1a wa s two‐fold higher on ly in ca se of Gu5 strain.
(§6) Table S1. Minimal inhibitory concentrations (MIC90; μM) and minimal fungicidal concentrations (MFC; μM) of ionic liquids (ILs ) or fluconazole (FLC) towards clinical C. albicans isolates.

C. albicans Gu5 = assay: MIC90 and MFC towards clinical isolates; assay type: cell-based; details: Candida albicans
Protocol: as §1, §2, §3, §4, §5, §6

C. albicans Gu4 = assay: MIC90 and MFC towards clinical isolates; assay type: cell-based; details: Candida albicans, clinical isolate Gu4 (FLC-sensitive); for MFC: read-out: Minimal fungicidal concentration (MFC); for MIC90: read-out: Minimal inhibitory concentration (MIC90)
Protocol: as §1, §2, §3, §4, §5, §6

ALS5 = assay: Real time quantitative PCR, relative gene expression; assay type: cell-based, C. albicans; details: ILs 25 µM, 2 h; relative to untreated cells (100%)
Protocol: (§7) Fungal adhesion to biomedical surfaces is strongly related to the structure of the cell wall, and the presence of adhesins (Als proteins) on the surface of the cell. In turn, the progression to biofilm formation is dependent on the ability of C. albicans to form hyphae. In conditions similar to those above (ILs conc. = 25 µM), we examined C. albicans cell wall integrity, its ability to form hyphae, and the level of ALS genes expression, encoding Als1 and Als5 adhesins (Figure 3). […] Despite some reduction, the result was not statistically significant (p = 0.12). On the other hand, after the treatment with IL 2a, the expression of ALS1 and ALS5 genes was reduced by 50 or 55%, respectively (Figure 3C). The results were statistically significant in both cases (p = 0.04 for either ALS gene). However, in case of compounds with alkyl substituents (1a and 1b), the reduction of gene expression was to a lesser degree. […] Despite observing a chain-length dependence, the results were not statistically significant (p = 0.07 for both ALS gene after treatment with 1b).
(§8) Figure 3 (A) C. albicans calcofluor white staining following a 2 h treatment with 1a,2a,1b ILs (conc. = 25 µM). Control experiment represents untreated calcofluor white-stained cells. Scale bar = 2.5 µm. (B) FBS-induced hyphae formation after 2 h treatment with 1a,2a,1b ILs (conc. = 25 µM). Control condition was C. albicans treated with FBS only. Scale bar = 10 µm. (C) Relative ALS1 and ALS5 gene expression in C. albicans following a 2 h treatment with 1a,2a,1b ILs (conc. = 25 µM). Gene expression levels are reported as means of 2^−∆∆CT values (n = 6) ± SD; normalized to 100% for untreated cells (control). Statistical analyses were performed by comparing expression under treatment with each IL to untreated cells. * p < 0.05.
(§9) YPD-grown C. albicans cells were pelleted, washed with PBS and treated with ILs (conc. = 25 µM) for 2 h at 37 °C. Next, the cells were pelleted, and concentrated (PBS; OD600 = 20). RNA was isolated using the Total RNA Mini Kit (A&A Biotechnology, Gdańsk, Poland). Synthesis of cDNA and calculation of gene expression levels were performed as previously described. The following gene-specific primers were used: ACT1_F (5′-TCCAGCTTTCTACGTTTCCA-3′), ACT1_R (5′-GTCAAGTCTCTACCAGCCAA-3′), ALS1_F (5′-TGTTGGTGTGACTACTTCCT-3′), ALS1_R (5′-TGT ACC ACT GTG TCA AT-3′), ALS5_F (5′-CTCCACTAGTTATGGGGATGT-3′) and ALS5_R (5′-TGAGGGAGAAATATAAGCGTCA-3′).

ALS1 = assay: as above; assay type: cell-based, C. albicans; details: ILs 25 µM, 2 h; relative to untreated cells (100%)
Protocol: as §7, §8, §9

[1] = B4, read-out: Minimal fungicidal concentration (MFC)
[2] = B4, read-out: Minimal inhibitory concentration (MIC90)
[3] = GU5, read-out: Minimal fungicidal concentration (MFC)
[4] = GU5, read-out: Minimal inhibitory concentration (MIC90)

Row | SMILES | MFC (C. albicans B4; clinical isolate B4 (FLC-resistant, MDR1 overexpression), read-out: Minimal fungicidal concentration (MFC)) [µM] | MIC90 (C. albicans B4; clinical isolate B4 (FLC-resistant, MDR1 overexpression), read-out: Minimal inhibitory concentration (MIC90)) [µM] | MFC (C. albicans Gu5; clinical isolate Gu5 (FLC-resistant, CDR1/CDR2 overexpression), read-out: Minimal fungicidal concentration (MFC)) [µM] | MIC90 (C. albicans Gu5; clinical isolate Gu5 (FLC-resistant, CDR1/CDR2 overexpression), read-out: Minimal inhibitory concentration (MIC90)) [µM] | MFC (C. albicans Gu4) [µM] | MIC90 (C. albicans Gu4) [µM] | Reduction of ALS5 gene expression (ALS5) [%] | Reduction of ALS1 gene expression (ALS1) [%] | MFC (C. albicans B4; [1]) [µM] | MIC90 (C. albicans B4; [2]) [µM] | MFC (C. albicans Gu5; [3]) [µM] | MIC90 (C. albicans Gu5; [4]) [µM]
1 | CCCCCCCCCn1cc[n+](CO[C@@H]2C[C@H](C)CC[C@H]2C(C)C)c1 [1a, 1-[(1R,2S,5R)-(−)-menthoxymethyl]-3-nonylimidazolium chloride] | 25 | 12.5 | 50 | 12.5 | 25 | 12.5 | 10 | 20 | – | – | – | –
2 | CCCCCCCCCCn1cc[n+](CO[C@@H]2C[C@H](C)CC[C@H]2C(C)C)c1 [1b, 3-decyl-1-[(1R,2S,5R)-(−)-menthoxymethyl]imidazolium chloride] | – | – | – | – | 50 | 25 | 40 | 45 | 25 | 25 | 50 | 25
3 | CCCCCCCCCOCn1cc[n+](CO[C@@H]2C[C@H](C)CC[C@H]2C(C)C)c1 [2a, 1-(1R,2S,5R)-(−)-menthoxymethyl-3-nonyloxymethylimidazolium chloride] | – | – | – | – | 25 | 12.5 | 55 | 50 | 12.5 | 12.5 | 25 | 12.5
